The assay relates to Phaeosphaeria nodorum (Septoria nodorum). Description: Phaeosphaeria nodorum (Septoria nodorum) / wheat / leaf disc preventative (glume blotch). Format: in vivo. Particulars: Parastagonospora nodorum, foliar, wheat leaf segments cv. Kanzler on agar, inoculated 2 days after application, vs untreated control, read-out: disease control. As to the method:
Phaeosphaeria nodorum (Septoria nodorum)/Wheat/Leaf Disc Preventative (Glume Blotch) Wheat leaf segments cv. Kanzler are placed on agar in a multiwell plate (24-well format) and sprayed with the formulated test compound diluted in water. The leaf disks are inoculated with a spore suspension of the fungus 2 days after application. The inoculated test leaf disks are incubated at 20° C. and 75% rh under a light regime of 12 h light/12 h darkness in a climate cabinet and the activity of a compound is assessed as percent disease control compared to untreated when an appropriate level of disease damage appears in untreated check leaf disks (5-7 days after application).

Bounds are passed on as bounds.

The text below walks through data of patent US20120129875A1, “SUBSTITUTED QUINAZOLINES AS FUNGICIDES” (SYNGENTA CROP PROTECTION, LLC, priority 2009, published 2012).

With `Clc1cccc(-c2cccc(-c3ncc4ccccc4n3)n2)c1Cl` [2/50], the pest or weed control at 200 ppm was at least 80%.

In the case of `COc1ccc(-c2cccc(-c3ncc4ccccc4n3)n2)cc1F` [2/57], the pest or weed control at 200 ppm is at least 80%.

`N#Cc1ccccc1-c1cccc(-c2ncc3ccccc3n2)n1` [2/61]: the pest or weed control at 200 ppm was at least 80%.

In the case of `Fc1cccc(F)c1-c1cccc(-c2ncc3ccccc3n2)n1` [2/104], the pest or weed control at 200 ppm was at least 80%.

Consider `CC(=O)c1ccccc1-c1cccc(-c2ncc3ccccc3n2)n1` [2/105], for which the pest or weed control at 200 ppm was at least 80%.

Consider `Cc1ccc(-c2cccc(-c3ncc4ccccc4n3)n2)c2ccccc12` [2/108], for which the pest or weed control at 200 ppm is at least 80%.

Take `O=Cc1c(F)ccc(-c2cccc(-c3ncc4ccccc4n3)n2)c1F` [2/110]: the pest or weed control at 200 ppm is at least 80%.

For `O=Cc1ccc(-c2cccc(-c3ncc4ccccc4n3)n2)c(F)c1F` [2/111], the pest or weed control at 200 ppm was at least 80%.

In the case of `O=[N+]([O-])c1ccccc1-c1cccc(-c2ncc3ccccc3n2)n1` [2/112], the pest or weed control at 200 ppm is at least 80%.

In the case of `COc1cccc(OC)c1-c1cccc(-c2ncc3ccccc3n2)n1` [2/113], the pest or weed control at 200 ppm is at least 80%.

As for `OCc1c(-c2cccc(-c3ncc4ccccc4n3)n2)ccc2ccccc12` [2/115], the pest or weed control at 200 ppm is at least 80%.

For the compound `OCc1cc2ccccc2cc1-c1cccc(-c2ncc3ccccc3n2)n1` [2/116], the pest or weed control at 200 ppm is at least 80%.

As for `OCc1cc(F)ccc1-c1cccc(-c2ncc3ccccc3n2)n1` [2/117], the pest or weed control at 200 ppm is at least 80%.

Turning to `c1cc(-c2ncc3ccccc3n2)nc(-c2cc3ccccc3c3ccccc23)c1` [2/119], the pest or weed control at 200 ppm was at least 80%.

Consider `COc1cc(-c2cccc(-c3ncc4ccccc4n3)n2)c(OC)cc1C` [2/121], for which the pest or weed control at 200 ppm is at least 80%.

On to `Cc1c(F)cccc1-c1cccc(-c2ncc3ccccc3n2)n1` [2/124], for which the pest or weed control at 200 ppm was at least 80%.

Regarding `COc1ccc(C=O)cc1-c1cccc(-c2ncc3ccccc3n2)n1` [2/125], the pest or weed control at 200 ppm is at least 80%.

In the case of `Cc1c(Cl)cccc1-c1cccc(-c2ncc3ccccc3n2)n1` [2/126], the pest or weed control at 200 ppm is at least 80%.

`COc1cc(F)c(F)cc1-c1cccc(-c2ncc3ccccc3n2)n1` [2/128]: the pest or weed control at 200 ppm was at least 80%.

In the case of `COC(=O)c1ccccc1-c1cccc(-c2ncc3ccccc3n2)n1` [2/130], the pest or weed control at 200 ppm was at least 80%.

`COc1cc(F)c(-c2cccc(-c3ncc4ccccc4n3)n2)c(F)c1` [2/131]: the pest or weed control at 200 ppm was at least 80%.

As for `Fc1cc(F)c(-c2cccc(-c3ncc4ccccc4n3)n2)c(F)c1` [2/132], the pest or weed control at 200 ppm was at least 80%.

On to `Cc1cc(-c2cccc(-c3ncc4ccccc4n3)n2)c(C)cc1F` [2/133], for which the pest or weed control at 200 ppm was at least 80%.

On to `Cc1ccc(-c2ncc3ccccc3n2)nc1-c1ccccc1N` [3/102], for which the pest or weed control at 200 ppm was at least 80%.

Regarding `COC(=O)c1ccc(-c2nc(-c3ncc4ccccc4n3)ccc2C)cc1` [3/103], the pest or weed control at 200 ppm is at least 80%.

Consider `Cc1ccc(-c2ncc3ccccc3n2)nc1-c1cccc([N+](=O)[O-])c1` [3/104], for which the pest or weed control at 200 ppm is at least 80%.

With `Cc1ccc(-c2ncc3ccccc3n2)nc1-c1c(F)cccc1F` [3/105], the pest or weed control at 200 ppm was at least 80%.

For `Cc1ccc(-c2ncc3ccccc3n2)nc1-c1ccc2ccccc2c1` [3/106], the pest or weed control at 200 ppm is at least 80%.

Take `CCOc1ccc(-c2nc(-c3ncc4ccccc4n3)ccc2C)cc1` [3/107]: the pest or weed control at 200 ppm was at least 80%.

Consider `CC(=O)c1ccccc1-c1nc(-c2ncc3ccccc3n2)ccc1C` [3/108], for which the pest or weed control at 200 ppm was at least 80%.

Turning to `Cc1ccc(-c2ncc3ccccc3n2)nc1-c1cccc(Cl)c1` [3/109], the pest or weed control at 200 ppm was at least 80%.

Turning to `COc1cc(-c2nc(-c3ncc4ccccc4n3)ccc2C)cc(OC)c1OC` [3/110], the pest or weed control at 200 ppm is at least 80%.

`CCCc1ccc(-c2nc(-c3ncc4ccccc4n3)ccc2C)cc1` [3/114]: the pest or weed control at 200 ppm was at least 80%.

For `CC(=O)c1ccc(-c2nc(-c3ncc4ccccc4n3)ccc2C)cc1` [3/118], the pest or weed control at 200 ppm was at least 80%.

Consider `Cc1ccc(-c2nc(-c3ncc4ccccc4n3)ccc2C)cc1[N+](=O)[O-]` [3/120], for which the pest or weed control at 200 ppm was at least 80%.

In the case of `COC(=O)c1cccc(-c2nc(-c3ncc4ccccc4n3)ccc2C)c1` [3/123], the pest or weed control at 200 ppm is at least 80%.

For the compound `CSc1cccc(-c2nc(-c3ncc4ccccc4n3)ccc2C)c1` [3/125], the pest or weed control at 200 ppm is at least 80%.

With `Cc1ccc(-c2ncc3ccccc3n2)nc1-c1ccc(CC#N)cc1` [3/126], the pest or weed control at 200 ppm is at least 80%.

Regarding `COC(=O)c1ccccc1-c1nc(-c2ncc3ccccc3n2)ccc1C` [3/128], the pest or weed control at 200 ppm is at least 80%.

As for `Cc1ccc(-c2ncc3ccccc3n2)nc1-c1ccc(Cl)cc1C(F)(F)F` [3/129], the pest or weed control at 200 ppm was at least 80%.

With `CCc1ccc(-c2nc(-c3ncc4ccccc4n3)ccc2C)cc1` [3/131], the pest or weed control at 200 ppm was at least 80%.

Regarding `Cc1ccc(-c2ncc3ccccc3n2)nc1-c1cccc(C#N)c1` [3/132], the pest or weed control at 200 ppm was at least 80%.

`CC(=O)c1cccc(-c2nc(-c3ncc4ccccc4n3)ccc2C)c1` [3/133]: the pest or weed control at 200 ppm is at least 80%.

Turning to `Cc1ccc(-c2ncc3ccccc3n2)nc1-c1cccc(-c2ccccc2)c1` [3/134], the pest or weed control at 200 ppm is at least 80%.

`COc1cccc(OC)c1-c1nc(-c2ncc3ccccc3n2)ccc1C` [3/135]: the pest or weed control at 200 ppm was at least 80%.

As for `COc1cc(F)c(F)cc1-c1nc(-c2ncc3ccccc3n2)ccc1C` [3/137], the pest or weed control at 200 ppm is at least 80%.

Consider `Cc1ccc(-c2ncc3ccccc3n2)nc1-c1ccc(Cl)c(F)c1Cl` [3/138], for which the pest or weed control at 200 ppm was at least 80%.

In the case of `Cc1ccc(-c2ncc3ccccc3n2)nc1-c1ccc(CO)cc1` [3/139], the pest or weed control at 200 ppm was at least 80%.

For the compound `CCOCc1ccc(-c2nc(-c3ncc4ccccc4n3)ccc2C)cc1` [3/142], the pest or weed control at 200 ppm is at least 80%.

On to `c1ccc(Oc2cccc(-c3ncc4ccccc4n3)n2)cc1` [4/24], for which the pest or weed control at 200 ppm was at least 80%.

Turning to `Fc1ccc(Cc2cccc(-c3ncc4ccccc4n3)n2)c(Cl)c1` [6/20], the pest or weed control at 200 ppm was at least 80%.

As to `c1ccc(-c2ccccc2Cc2cccc(-c3ncc4ccccc4n3)n2)cc1` [6/21], the pest or weed control at 200 ppm is at least 80%.

For `Fc1c(Cl)cccc1Cc1cccc(-c2ncc3ccccc3n2)n1` [6/22], the pest or weed control at 200 ppm is at least 80%.

With `COc1ccc(Cc2cccc(-c3ncc4ccccc4n3)n2)c(Cl)c1Cl` [6/23], the pest or weed control at 200 ppm was at least 80%.

Turning to `Fc1ccc(Cc2cccc(-c3ncc4ccccc4n3)n2)cc1F` [6/24], the pest or weed control at 200 ppm was at least 80%.

For the compound `Fc1cccc(F)c1Cc1cccc(-c2ncc3ccccc3n2)n1` [6/26], the pest or weed control at 200 ppm is at least 80%.

In the case of `Clc1ccc(Cc2cccc(-c3ncc4ccccc4n3)n2)cc1Cl` [6/27], the pest or weed control at 200 ppm was at least 80%.

On to `Fc1ccc(Cc2cccc(-c3ncc4ccccc4n3)n2)c(F)c1F` [6/28], for which the pest or weed control at 200 ppm was at least 80%.

Consider `Fc1cc(F)c(F)c(Cc2cccc(-c3ncc4ccccc4n3)n2)c1` [6/29], for which the pest or weed control at 200 ppm is at least 80%.

In the case of `COc1cccc(Cc2cccc(-c3ncc4ccccc4n3)n2)c1OC` [6/30], the pest or weed control at 200 ppm was at least 80%.
